In the CheMixHub viscosity set:
± gives the uncertainty stated by the source.

How the values were obtained:
[1] = xn = mol fraction of the nth substance listed
[2] = 101 kPa

O=c1[nH]c2nc(O)nc(O)c2[nH]1 + O
viscosity [mPa·s], [1], 101.3 kPa
Details	298.15 K	303.15 K	308.15 K	313.15 K
x1 = 1e-06	0.9 ± 0.04	0.82 ± 0.04	0.73 ± 0.04	0.63 ± 0.04
x1 = 2e-06	0.9 ± 0.04	0.83 ± 0.04	0.75 ± 0.04	0.65 ± 0.04
x1 = 3e-06	0.91 ± 0.04	0.84 ± 0.04	0.76 ± 0.04	0.66 ± 0.04

CC(C)c1ccccc1 + CCc1ccccc1
[1], 101.33 kPa, x1 = 0.4675
Details	viscosity [mPa·s]
293.15 K	0.696 ± 0.004
313.15 K	0.545 ± 0.003

OCCc1ccccc1 + c1ccccc1
[1], 293.15 K, 101.32 kPa
Details	viscosity [mPa·s]
x1 = 0.01771	0.6624 ± 0.13
x1 = 0.04031	0.6965 ± 0.14
x1 = 0.0739	0.7584 ± 0.15
x1 = 0.1095	0.8402 ± 0.17
x1 = 0.1585	0.985 ± 0.2

CCCCOC(C)=O + C1COCCO1
[1], 303.15 K, 101.3 kPa
Details	viscosity [mPa·s]
x2 = 0.1002	0.6618 ± 0.0045
x2 = 0.1988	0.682 ± 0.0046
x2 = 0.2997	0.7051 ± 0.0047
x2 = 0.3963	0.7333 ± 0.0048
x2 = 0.4977	0.7684 ± 0.005
x2 = 0.6024	0.809 ± 0.0052
x2 = 0.7009	0.859 ± 0.0055
x2 = 0.7968	0.9174 ± 0.0058
x2 = 0.9016	0.9976 ± 0.0063

CC(C)c1ccccc1 + CCCCCCCCCCCCCCCC
viscosity [mPa·s], [1], 100 kPa
Details	x2 = 0.0536	x2 = 0.1093	x2 = 0.2207	x2 = 0.2969	x2 = 0.4217	x2 = 0.5376	x2 = 0.6083	x2 = 0.7347	x2 = 0.823	x2 = 0.8933
298.15 K	0.834 ± 0.008	0.921 ± 0.009	1.117 ± 0.011	1.249 ± 0.013	1.525 ± 0.015	1.815 ± 0.018	2.002 ± 0.02	2.356 ± 0.024	2.602 ± 0.026	2.783 ± 0.028
308.15 K	0.77 ± 0.008	0.846 ± 0.009	1.018 ± 0.01	1.136 ± 0.011	1.348 ± 0.014	1.561 ± 0.016	1.687 ± 0.017	1.932 ± 0.019	2.098 ± 0.021	2.236 ± 0.022
318.15 K	0.688 ± 0.007	0.76 ± 0.008	0.904 ± 0.009	1.003 ± 0.01	1.176 ± 0.012	1.34 ± 0.013	1.444 ± 0.015	1.629 ± 0.016	1.756 ± 0.018	1.859 ± 0.019

C1COCOC1 + NC=O
viscosity [mPa·s], [1], 101 kPa
Details	x2 = 0.6012	x2 = 0.6156	x2 = 0.8658	x2 = 0.8689	x2 = 0.9552	x2 = 0.9555
298.15 K	2.039 ± 0.038	–	3.119 ± 0.042	–	–	3.328 ± 0.039
313.15 K	–	1.581 ± 0.029	–	2.196 ± 0.029	2.366 ± 0.027	–

C[n+]1ccn(CCO)c1.O=C([O-])C(F)(F)C(F)(F)C(F)(F)C(F)(F)F
[2]
Details	viscosity [mPa·s]
298.15 K	712.8 ± 38
308.15 K	351.3 ± 17
318.15 K	190.8 ± 8.5

CCCN(CCC)C(C)=O + O
[1], 298.16 K, 101 kPa
Details	viscosity [mPa·s]
x2 = 0.0688	2.38 ± 0.02
x2 = 0.1822	2.71 ± 0.02
x2 = 0.3049	3.12 ± 0.03
x2 = 0.4342	3.66 ± 0.03
x2 = 0.5515	4.26 ± 0.04
x2 = 0.6896	4.87 ± 0.04
x2 = 0.74	4.95 ± 0.04
x2 = 0.762	4.95 ± 0.04
x2 = 0.7891	4.88 ± 0.04
x2 = 0.8742	3.94 ± 0.03
x2 = 0.9163	2.96 ± 0.03
